Assay results from article PMC5786444, “Structural Basis for the Substrate Inhibition of Proline Utilization A by Proline” (Molecules : A Journal of Synthetic Chemistry and Natural …, 2017).

Legend:
[1] = biological target: T1, Proline utilization A (BjPutA) (Bradyrhizobium diazoefficiens, UniProt Q89E26, C792A); assay: X-ray crystal structure, […] Å, crystals soaked in […] L-proline; assay type: binding
T1 construct: gene putA; BjPutA C792A; 1949 of 2002 expected residues modeled in the asymmetric unit (dimer)
T1 sequence (Q89E26 1-999 C792A): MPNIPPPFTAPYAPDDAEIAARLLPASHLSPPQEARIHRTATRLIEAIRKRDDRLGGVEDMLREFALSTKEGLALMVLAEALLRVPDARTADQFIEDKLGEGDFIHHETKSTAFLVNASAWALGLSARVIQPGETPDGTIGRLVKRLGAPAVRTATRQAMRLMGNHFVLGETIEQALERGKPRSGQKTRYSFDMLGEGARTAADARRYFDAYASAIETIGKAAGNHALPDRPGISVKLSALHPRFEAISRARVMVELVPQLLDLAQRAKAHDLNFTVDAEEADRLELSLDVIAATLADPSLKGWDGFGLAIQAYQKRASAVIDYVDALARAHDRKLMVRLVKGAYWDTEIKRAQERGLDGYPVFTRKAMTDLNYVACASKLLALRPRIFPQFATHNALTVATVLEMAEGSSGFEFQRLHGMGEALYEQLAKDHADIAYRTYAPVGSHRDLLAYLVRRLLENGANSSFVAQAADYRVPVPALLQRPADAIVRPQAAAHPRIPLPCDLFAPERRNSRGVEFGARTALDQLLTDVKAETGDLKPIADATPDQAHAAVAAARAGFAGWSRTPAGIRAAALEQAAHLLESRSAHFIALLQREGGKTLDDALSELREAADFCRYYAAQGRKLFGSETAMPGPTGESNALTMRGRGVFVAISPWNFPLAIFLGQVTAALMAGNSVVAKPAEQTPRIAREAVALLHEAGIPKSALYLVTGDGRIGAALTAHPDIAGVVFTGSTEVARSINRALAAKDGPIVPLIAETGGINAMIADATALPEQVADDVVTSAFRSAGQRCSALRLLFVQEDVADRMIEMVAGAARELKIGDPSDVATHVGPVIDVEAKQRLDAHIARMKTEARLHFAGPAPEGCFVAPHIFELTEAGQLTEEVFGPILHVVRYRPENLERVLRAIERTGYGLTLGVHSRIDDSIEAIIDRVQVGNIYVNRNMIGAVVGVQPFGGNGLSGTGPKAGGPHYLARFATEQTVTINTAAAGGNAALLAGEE

[2] = biological target: T2, Proline utilization A (BjPutA) (Bradyrhizobium diazoefficiens, UniProt Q89E26, R456M); assay: steady-state GSALDH kinetics (NADH formation at […] nm), global fit to competitive inhibition; assay type: biochemical
T2 construct: gene putA; BjPutA R456M mutant (GSALDH activity measured)
T2 sequence (Q89E26 1-999 R456M): T1 sequence (Q89E26 1-999 C792A)

NC(CCC=O)C(=O)O = test system: T3, NC(CCC=O)C(=O)O; assay: purified protein; assay type: biochemical, Bradyrhizobium diazoefficiens; conditions: NAD+ GSAL site of the GSALDH active site
T3 construct: BjPutA R456M mutant (GSALDH activity measured)

Molecule | X-ray crystal structure, 2.15 Å, crystals soaked in 2 M L-proline [1] | Ki [2] [mM] | Km (NC(CCC=O)C(=O)O) [µM]
O=C(O)[C@@H]1CCCN1 [L-proline] | The carboxylate group interacts with Arg791, Ser793, and the backbone amine groups of Gly946 and Ala947. | 46.3 | 
Proline utilization A (BjPutA) (Bradyrhizobium diazoefficiens USDA 110; R456M) |  |  | 2400
